A short description of series [1]: Half life of the compound. It is filed as physicochemical.
Series [2] has as its system Rattus norvegicus. The experiment in a line: Immunomodulatory activity in rat assessed as decrease in peripheral blood lymphocyte count at 100 mg/kg, po after 12 hrs. It is filed as functional. On the set-up: scale not given: the % may be the effect or the level left.
Series [3] deals with Mus musculus. Briefly: Immunomodulatory activity in po dosed mouse assessed as decrease in peripheral blood lymphocyte count after 3 hrs. Type of series: functional.
Series [4] deals with Sphingosine 1-phosphate receptor 1 (Homo sapiens, UniProt P21453). The experiment in a line: Antagonist activity at human S1P1 receptor expressed in HEK293 cells assessed as inhibition of S1P-induced decrease in cAMP formation by [35S]GTPgammaS binding assay. It is filed as functional, cell-based. (In general: cAMP levels reflect the balance of adenylyl cyclase and phosphodiesterase activity.)

In series [5] the test system is Rattus norvegicus. The experiment in a line: Immunomodulatory activity in rat assessed as decrease in peripheral blood lymphocyte count at 50 mg/kg, po after 1 to 8 hrs. It is filed as functional. Set-up: scale not given: the % may be the effect or the level left.
Series [6] deals with T1, Sphingosine 1-phosphate receptor 3 (Homo sapiens, UniProt Q99500). The experiment in a line: Inhibition of S1P3 receptor (unknown origin).
For series [7], the target named is T2, Sphingosine 1-phosphate receptor 5 (Homo sapiens, UniProt Q9H228). Briefly: Inhibition of S1P5 receptor (unknown origin).
The target of series [8] is T3, Sphingosine 1-phosphate receptor 4 (Homo sapiens, UniProt O95977).
T3 sequence (O95977 whole entry): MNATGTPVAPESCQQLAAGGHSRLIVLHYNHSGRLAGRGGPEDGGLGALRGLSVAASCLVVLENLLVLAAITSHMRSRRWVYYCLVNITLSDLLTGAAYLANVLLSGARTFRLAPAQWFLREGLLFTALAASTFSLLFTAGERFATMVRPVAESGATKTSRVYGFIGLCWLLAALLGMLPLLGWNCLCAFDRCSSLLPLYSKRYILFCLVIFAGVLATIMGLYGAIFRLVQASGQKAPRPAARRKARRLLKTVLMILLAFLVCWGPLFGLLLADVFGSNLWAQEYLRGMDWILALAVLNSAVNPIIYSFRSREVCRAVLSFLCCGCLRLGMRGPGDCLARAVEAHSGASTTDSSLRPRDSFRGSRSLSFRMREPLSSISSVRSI
Briefly: Inhibition of S1P4 receptor (unknown origin).

Series [9] has as its system Rattus norvegicus. Briefly: Immunomodulatory activity in rat assessed as decrease in peripheral blood lymphocyte count at 30 mg/kg, po after 14 to 24 hrs. It is filed as functional. Set-up: scale not given: the % may be the effect or the level left.
Series [10] deals with T1, Sphingosine 1-phosphate receptor 3. The experiment in a line: Antagonist activity at human S1P3 receptor expressed in CHO cells assessed as inhibition of agonist-induced calcium mobilization preincubated for 20 mins by Fluo-4/FLIPR method. It is filed as functional, cell-based. On the technique in general: Calcium assays in cells follow changes in intracellular calcium, usually with a dye or a luminescent sensor.

Series [11] has as its target Sphingosine 1-phosphate receptor 2 (Homo sapiens, UniProt O95136). Briefly: Antagonist activity at human S1P2 receptor expressed in CHO cells assessed as inhibition of agonist-induced calcium mobilization preincubated for 20 mins by Fluo-4/FLIPR method. Type of series: functional, cell-based.
Series [12] has as its system Rattus norvegicus. The experiment in a line: Immunomodulatory activity in rat assessed as decrease in peripheral blood lymphocyte count at 30 mg/kg, po after 48 hrs. Type of series: functional. Set-up: scale not given: the % may be the effect or the level left.
Series [13] addresses T3, Sphingosine 1-phosphate receptor 4. The experiment in a line: Agonist activity at S1P4 receptor (unknown origin).
Series [14] concerns the target T2, Sphingosine 1-phosphate receptor 5. The experiment in a line: Antagonist activity at human S1P5 receptor expressed in CHO cells after 120 mins by [35S]GTPgammaS binding assay. Type of series: functional, cell-based.
Series [15] concerns the target T3, Sphingosine 1-phosphate receptor 4. Briefly: Antagonist activity at human S1P4 receptor expressed in CHO cells assessed as inhibition of agonist-induced calcium mobilization preincubated for 20 mins by Fluo-4/FLIPR method. It is filed as functional, cell-based.
A short description of series [16]: Half life in human. It is filed as ADME, organism-based. As to conditions: in vivo.
Series [17] concerns Homo sapiens. The experiment in a line: Immunomodulatory activity in multiple sclerosis patient assessed as decrease in peripheral blood lymphocyte count at 1.25 mg/kg, po. Type of series: functional. On the set-up: scale not given: the % may be the effect or the level left.
Series [18] deals with Homo sapiens. Briefly: Immunomodulatory activity in multiple sclerosis patient assessed as decrease in peripheral blood lymphocyte count at 5 mg/kg, po. It is filed as functional. On the set-up: scale not given: the % may be the effect or the level left.
For series [19], the target named is T1, Sphingosine 1-phosphate receptor 3. Briefly: Agonist activity at S1P3 receptor (unknown origin).
Series [20] has as its target T2, Sphingosine 1-phosphate receptor 5. Briefly: Agonist activity at S1P5 receptor (unknown origin).
The target of series [21] is T3, Sphingosine 1-phosphate receptor 4. Briefly: Agonist activity at human S1P4 receptor expressed in CHO cells by [35S]GTPgammaS binding assay. Type of series: functional, cell-based.
Series [22] has as its target T2, Sphingosine 1-phosphate receptor 5. Briefly: Agonist activity at human S1P5 receptor expressed in CHO cells by [35S]GTPgammaS binding assay. It is filed as functional, cell-based. In general terms: GTPγS resists hydrolysis and so accumulates on activated G proteins.

T2 sequence (Q9H228 whole entry): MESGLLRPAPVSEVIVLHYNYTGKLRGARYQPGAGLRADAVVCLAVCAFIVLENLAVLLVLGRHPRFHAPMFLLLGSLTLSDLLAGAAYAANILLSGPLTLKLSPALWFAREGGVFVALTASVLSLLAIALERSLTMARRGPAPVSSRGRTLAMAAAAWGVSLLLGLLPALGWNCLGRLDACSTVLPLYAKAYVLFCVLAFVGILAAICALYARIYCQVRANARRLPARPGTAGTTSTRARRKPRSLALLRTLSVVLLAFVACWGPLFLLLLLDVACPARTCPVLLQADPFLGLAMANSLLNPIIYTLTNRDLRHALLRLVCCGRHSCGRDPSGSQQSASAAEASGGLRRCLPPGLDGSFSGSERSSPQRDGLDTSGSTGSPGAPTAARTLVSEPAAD
T1 sequence (Q99500 whole entry): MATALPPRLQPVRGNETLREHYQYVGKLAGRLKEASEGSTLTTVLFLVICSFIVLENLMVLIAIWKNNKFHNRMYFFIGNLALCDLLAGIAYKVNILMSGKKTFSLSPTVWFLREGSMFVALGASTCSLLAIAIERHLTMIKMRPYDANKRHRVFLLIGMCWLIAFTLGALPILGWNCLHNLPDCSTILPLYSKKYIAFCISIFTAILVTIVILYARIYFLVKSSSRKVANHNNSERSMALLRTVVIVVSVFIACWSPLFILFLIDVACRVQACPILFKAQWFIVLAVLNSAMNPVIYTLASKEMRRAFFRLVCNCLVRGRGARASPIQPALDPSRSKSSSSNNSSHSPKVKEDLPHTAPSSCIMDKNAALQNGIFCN
Sphingosine 1-phosphate receptor 1, sequence (P21453 whole entry): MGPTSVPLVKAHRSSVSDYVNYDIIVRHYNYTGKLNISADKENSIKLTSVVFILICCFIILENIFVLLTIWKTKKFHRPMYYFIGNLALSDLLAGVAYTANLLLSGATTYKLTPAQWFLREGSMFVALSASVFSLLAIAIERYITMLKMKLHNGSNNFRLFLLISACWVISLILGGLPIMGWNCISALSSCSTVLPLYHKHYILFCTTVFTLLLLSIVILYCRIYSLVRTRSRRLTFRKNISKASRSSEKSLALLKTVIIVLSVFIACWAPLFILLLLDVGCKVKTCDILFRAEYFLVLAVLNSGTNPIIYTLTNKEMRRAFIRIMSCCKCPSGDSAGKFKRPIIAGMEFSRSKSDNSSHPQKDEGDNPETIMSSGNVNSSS
Sphingosine 1-phosphate receptor 2, sequence (O95136 whole entry): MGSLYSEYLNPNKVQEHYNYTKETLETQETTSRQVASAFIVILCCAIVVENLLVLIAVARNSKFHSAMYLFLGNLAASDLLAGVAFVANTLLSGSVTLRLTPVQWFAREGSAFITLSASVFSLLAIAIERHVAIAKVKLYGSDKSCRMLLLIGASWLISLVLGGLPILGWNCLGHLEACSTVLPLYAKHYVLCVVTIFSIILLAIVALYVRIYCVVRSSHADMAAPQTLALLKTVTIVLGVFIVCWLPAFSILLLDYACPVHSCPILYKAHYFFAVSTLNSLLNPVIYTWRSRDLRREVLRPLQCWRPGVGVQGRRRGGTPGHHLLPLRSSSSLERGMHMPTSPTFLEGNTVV

For orientation: half-life means the time needed for the level to fall by half in the phase considered. In the case of `Cc1ccc(CCCC(=O)c2ccc(CC[C@@](C)(N)CO)n2C)cc1`, the half-life in [1] was 168 h.
As for `Cc1cc(S(=O)(=O)Nc2cccc(-c3cc(C)c(C(=O)N[C@@H](C)C(=O)O)c(C)c3)c2)c(C)cc1Cl`, the Activity in series [2] amounted to 75%.
By ED50 is commonly meant the midpoint of the dose-response relation. Regarding `O=C(O)C1CN(Cc2ccc(-c3noc(-c4cc(-c5ccccc5)c(C(F)(F)F)s4)n3)cc2)C1`, the ED50 in series [3] is 0.07 mg/kg.
For orientation: IC50 means the concentration that gives 50% inhibition. As usually defined, the Ki is a measure of affinity in units of concentration, obtained from inhibition or displacement. As to `CCn1c(OC)nnc1[C@@H](C)NS(=O)(=O)c1ccc(F)c(Cl)c1`, the IC50 in series [4] was 383 nM. The Ki in series [4] is 249 nM; in [6], 4880 nM; in series [7], above 10000 nM; in [8], above 10000 nM. Further, in series [5], the Activity was above 70%.
As a reminder, the EC50 is the concentration at which the effect is half-maximal. For the molecule `Cc1cc([C@@H](C)Nc2cccc(-c3cc(C)c(C(=O)N[C@@H](C)C(=O)O)c(C)c3)c2)ccc1Cl`, the Activity worked out at 75% in [9] and 60% in series [12]. Further, the IC50 in series [10], in series [11], in series [14] and in series [15] was above 10000 nM in each case. Also, the EC50 in series [13] is 245 nM.
The molecule `CCCCCCCCc1ccc(CCC(N)(CO)CO)cc1` [FINGOLIMOD] had a half-life in series [16] of 216 h. The Activity in series [17] and in series [18] was 20% in each case. Besides, the EC50 was found to be 3 nM in series [19], 0.3 nM in [13] and 0.3 nM in series [20].
Take `CCC/N=C1\S/C(=C\c2ccc(OC[C@H](O)CO)c(Cl)c2)C(=O)N1c1ccccc1C` [PONESIMOD]: in series [1], the half-life was 30 h.
On to `CCc1cc(/C(C)=N/OCc2ccc(C3CCCCC3)c(C(F)(F)F)c2)ccc1CN1CC(C(=O)O)C1` [SIPONIMOD], for which the EC50 in series [21] was 750 nM; in series [22] it was 0.98 nM. Besides, the half-life in [16] was 30 h.

The values above are taken from ChEMBL document CHEMBL3085709, “Modulators of the Sphingosine 1-phosphate receptor 1” (Bioorg Med Chem Lett, 2013).
